According to patent publication US7855211B2, “Protein kinase inhibitors” (Eli Lilly and Company, priority 2008, dated 2010):

Experiments:
[1] = tested on: Calu-6 (lung) subcutaneous xenografts; experiment: Calu-6 (lung) subcutaneous xenograft, combination study with gemcitabine; format: in vivo, human; settings: 60 mpk, IP, q3dx7
Procedure: (§1) Test compound is prepared in an appropriate vehicle (1% hydroxyethyl cellulose, in 25 mM phosphate buffer pH 2) and is administered by oral gavage daily (at 25, 50 or 100 mg/kg (mpk)) for 21 days when tumours are established (11-29 days after implant). Tumour response is determined by tumour volume measurement performed twice a week during the course of treatment.
(§2) The statistical method for assessing Tumour Growth Delay (TGD-Individual interpolation method) is as follows: For each animal, the time to reach a specified tumour volume (threshold) is calculated by interpolating between the last measurement before reaching the threshold and the next measurement. The interpolation is linear using log10(volume) vs. time. If an animal never reaches the threshold, its crossing time is reported at “>T” where T is the last day measured for that animal. These crossing times are analyzed as “time-to-event” data with right-censoring using a Weibull distribution. A mean and standard deviation are determined for each treatment group. Tumour growth delay (TGD) is the difference in mean crossing time between a treated group and the vehicle control group. T-tests are performed using the means and standard deviations from the Weibull analysis. Body weight is taken as a general measurement of toxicity.
Calu-6 (lung) subcutaneous xenografts are grown and measured as previously described. Gemcitabine was formulated in saline (0.9% sodium chloride in purified water) and administered via intraperitoneal injection q3dx7. Test compound was administered qdx21. A comparison of the single agent activity of gemcitabine with combination treatments containing both gemcitabine and the compound of Example 16 are shown in Table 10. Tumour growth is analyzed by 2-way interaction analysis.

CDK6 = biological target: T1, CDK6 (Homo sapiens, UniProt Q00534); experiment: CDK6 Inhibition Assay; format: biochemical; settings: CDK6 kinase, 33P-ATP, CTRF substrate
T1 construct: purchased Proqinase 7533
T1 sequence (Q00534 whole entry): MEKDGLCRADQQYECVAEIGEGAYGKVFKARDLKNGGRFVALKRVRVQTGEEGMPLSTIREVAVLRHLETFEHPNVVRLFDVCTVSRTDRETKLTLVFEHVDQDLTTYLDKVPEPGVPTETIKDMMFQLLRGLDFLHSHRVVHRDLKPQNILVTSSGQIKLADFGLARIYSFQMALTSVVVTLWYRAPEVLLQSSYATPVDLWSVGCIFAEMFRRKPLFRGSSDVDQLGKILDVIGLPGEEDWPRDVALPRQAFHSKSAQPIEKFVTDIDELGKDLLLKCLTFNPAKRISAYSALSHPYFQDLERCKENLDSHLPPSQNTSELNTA
T1 sequence (P24385 whole entry partner): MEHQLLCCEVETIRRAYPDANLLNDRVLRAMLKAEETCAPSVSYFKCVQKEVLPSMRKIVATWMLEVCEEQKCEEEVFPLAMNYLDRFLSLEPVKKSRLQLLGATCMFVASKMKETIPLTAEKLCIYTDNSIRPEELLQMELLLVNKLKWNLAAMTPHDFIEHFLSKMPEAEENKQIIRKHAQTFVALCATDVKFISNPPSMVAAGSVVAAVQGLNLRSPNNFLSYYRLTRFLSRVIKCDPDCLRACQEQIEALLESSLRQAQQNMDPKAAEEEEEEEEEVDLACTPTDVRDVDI
Procedure: 10 μL of test compound in 20% DMSO, 20 μL of ATP and CTRF (Upstate cat # 12-439) solution, and 10 μL of enzyme solution are mixed in a 96 well plate. The ATP and CRTF solution is prepared to give a final concentration of 100 μM ATP, 0.5 μCi [^33P]-ATP and 0.8 μM CTRF diluted in kinase buffer of 68 mM HEPES pH 7.4, 6.72 mM MgCl2, 2.64 mM DTT, and 0.004% TRITON™ X-100. The enzyme solution is prepared for a final concentration of 1.7 ng/μL CDK6 enzyme (Proqinase cat # 7533) diluted in the kinase buffer described above in the CDK4 inhibition assay. Test compounds are serially diluted 1:3 in 20% DMSO to create a 10 point curve at a starting concentration of 20 μM. 20% DMSO buffer alone without added test compound is employed as a control, 500 mM EDTA is used to determine the level of background ^33P in the absence of enzyme activity. Reagents are mixed and incubated for 90 min at 20° C. The reaction is terminated by the addition of 80 μL 10% (v/v) H3PO4 and precipitation of material onto glass fiber filter plates (Millipore, MAFC N0B 50). The wells are washed four times with 0.5% H3PO4 and the radioactivity incorporated is determined with a microplate scintillation counter (Microbeta Trilux, Wallac).
The data is analyzed in the same manner as for CDK4. Preferred exemplified compounds display an IC50 of <30 nM in the above assay. […]

[2] = tested on: U87 MG subcutaneous xenografts; experiment: U87 MG subcutaneous xenograft, combination study with temozolomide; format: in vivo, human; settings: 3 mpk, IP, q7dx2
Procedure: as §1, §2
U87 MG subcutaneous xenografts are grown and measured as previously described. The compound of Example 16 is formulated and administered as previously described and dosed orally once a day from days 11-31. Temozolomide (Schering Corporation) is formulated in 1% w/v hydroxyethylcellulose/0.25% v/v polysorbate 80 in purified water and administered by interperitoneal injection on days 11 and 18. A comparison of the single agent activity of temozolomide with a combination treatment with the compound of Example 16 is shown in Table 7. Tumor growth is analyzed by 2-way interaction analysis; log-transformed tumor volumes were analyzed with a repeated measures analysis of variance (ANOVA) using a spatial power correlation model in SAS, version 9.1 (Cary, N.C.). […]

[3] = tested on: U87 MG orthotopic brain xenografts; experiment: U87 MG orthotopic brain xenograft, combination study with temozolomide; settings: TMZ IP 3 mg/kg (days 6 and 13)
Procedure: In vivo brain tumour model: Male NIH-RNU rats weighing between 225 and 300 g are anesthetized with isoflurane and placed into a stereotaxic frame (David Kopf Instruments, Tujunga, Calif.). A mid-line incision is made and a 1 mm burr hole drilled 2 mm lateral from the midline and 3 mm anterior to the coronal suture. A cell suspension of 5×10^5 U87 MG human glioblastoma tumour cells (grown in Eagle's MEM with Earle Salts, L-glutamine and non essential amino acids, 1 mM Na pyruvate and 10% FBS) in 10 μL (5×10^5 cells for qd dosing and 1×10^6 for q2d dosing) is injected at a depth of 3 mm by means of a 25 or 50 μl Hamilton syringe over a period of approximately 2 min using a stereotaxic-mounted syringe pump (Nano-Injector, model #53310 and Stereotaxic Adapter Clamp, part #51681, Stoelting Co, Wood Dale, Ill.) with the syringe left in place for an additional 1 min to prevent backflow and the syringe is slowly withdrawn. […]
The primary outcome variable is survival. Animals are monitored daily until death and, in consultation with the veterinary staff and in adherence with the policy on tumour implantation, euthanized if the animal becomes moribund. […] Survival data are analyzed by the Kaplan-Meier method for median survival analysis using JMP ν6.0.2 (SAS Institute).

## Cl.Nc1ccn([C@@H]2O[C@H](CO)[C@@H](O)C2(F)F)c(=O)n1 (single isomer, unassigned) [Gemcitabine, 2′-deoxy-2′,2′-difluorocytidine monohydrochloride (β-isomer)]
[1]
  Dead/total animals: 0/7
  Maximum body weight loss (%): −12%
  Tumor volume (mg) at end of dosing period (day 38): 509.18 mg

## Cc1nc2c(F)cc(-c3nc(Nc4ccc(CN5CCN(C(C)C)CC5)cn4)ncc3F)cc2n1C(C)C [Example 19, [5-Fluoro-4-(7-fluoro-3-isopropyl-2-methyl-3H-benzoimidazol-5-yl)-pyrimidin-2-yl]-[5-(4-isopropyl-piperazin-1-ylmethyl)-pyridin-2-yl]-amine methanesulfonate]
CDK6
  IC50: 5 nM

## Cn1nnc2c(C(N)=O)ncn2c1=O [Temozolomide]
[2]
  Dead/total animals: 0/8
  Maximum body weight loss (%): −1%
  Tumor volume (mg) at end of dosing period (day 31): 101.88 mg
[3]
  Mean Survival: 46.9 days
  Median Survival: 47 days
